Columns and labels:
Assay type in all cases: physicochemical
[1] = Solubility in 1,1,3,3-tetramethyl urea at 90° C. in a closed vial; conditions: tetramethyl urea (TMU)
Method: 1,1,3,3tetramethyl urea, also called “tetramethyl urea” and sometimes referenced “TMU” can dissolve up to 7% weight 2,4-hexadiyn-1,6-bis(ethylurea) at a temperature of 90° C. in a closed vial.

[2] = Room temperature solubilities in various solvent systems (Table 3); conditions: for Solubility: 20° C., material recrystallized from acetic acid
From the text: As is the case elsewhere herein, the acetone/water and ethanol/water solvent mixtures are given in weight-for-weight proportions in Table 3 and FIG. 10. It can be seen from Table 3 and FIG. 10 that some of the solvent systems displaying elevated solubility at higher temperatures, for example acetic acid and the several aqueous mixtures, have only limited solubility at room temperature.

[3] = Further solubility tests at 1, 4, 7 and 10 percent by weight, 90° C. water bath (Example 2)
Method: A 90° C. water bath is employed to maintain the solvent or solution temperature and results obtainable are tabulated in Table 2 below, solubility parameter information again being included to facilitate understanding of the data for acetone and water, for reference.

[4] = Solubility test: ability of each solvent to dissolve at least 1 percent by weight at a process temperature near its boiling point (Example 1)
From the text: This example illustrates solvent mapping, testing and solubility region definition for a diacetylenic monomer for which new solvents and solubility information are desired, namely 2,4-hexadiyn-1,6-bis(ethylurea) and for which reliable solubility parameter information is not available. In this example, solubility points are mapped for each of a number of representative samples of a wide range of solvents of different chemical types and physicochemical characteristics, according to their solubility parameters. The solubility points of the representative solvents (filled squares) are mapped on a plot of hydrogen bonding (δH), on the Y-axis, versus polar parameters (δP), on the X-axis, generating a map such as that shown in FIG. 4. Also shown in FIG. 4 are solubility points for solvent systems comprising 25 percent by weight water/solvent mixtures (unfilled squares).
Each solvent is tested for its ability to dissolve at least 1 percent by weight 2,4-hexadiyn-1,6-bis(ethylurea) at a temperature not more than 5° C. above the boiling point of the solvent. Because the boiling points of the solvents tested vary widely, ranging from 56° C. to 189° C. the solvents are processed in batches at temperatures of 60, 75, 82, and 90° C., respectively. The process temperature desirably is not greater than 4 to 5° C. above a given solvent's boiling point.
Some exemplary solubility data obtainable for 2,4-hexadiyn-1,6-bis(ethylurea) from the above-described solubility test with the solvents indicated, are set forth in Table 1 below along with solubility parameter information for the solvents. Also included in Table 1 are data regarding the 25 percent by weight water/solvent mixtures.

[5] = solvent 1-Propanol, 90° C. water bath
[6] = solvent 2-Propanol (IPA), 90° C. water bath
[7] = solvent 25% Water/Acetone, 90° C. water bath
[8] = solvent 25% Water/DMF, 90° C. water bath
[9] = solvent 25% Water/DMSO, 90° C. water bath
[10] = solvent 25% Water/Ethanol, 90° C. water bath
[11] = solvent 25% Water/IPA, 90° C. water bath
[12] = solvent 25% water/acetic acid, 90° C. water bath
[13] = solvent 25% water/formic acid, 90° C. water bath
[14] = solvent Acetic acid, 90° C. water bath
[15] = solvent Acetone, 90° C. water bath
[16] = solvent DMSO, 90° C. water bath
[17] = solvent Ethanol, 90° C. water bath
[18] = solvent Ethylene Glycol, 90° C. water bath
[19] = solvent Formic acid, 90° C. water bath
[20] = solvent Methanol, 90° C. water bath
[21] = solvent Pyridine, 90° C. water bath
[22] = solvent Water, 90° C. water bath

CCNC(=O)NCC#CC#CCNC(=O)NCC [KE, 2,4-hexadiyn-1,6-bis(ethylurea)]
amount dissolved by 1,1,3,3-tetramethyl urea [1]: up to 7 % weight | Solubility ([2]; Acetic acid): 0.6 wt. % of the Solution | Solubility ([2]; Acetone/water 4:1 (weight for weight)): 0.16 wt. % of the Solution | Solubility ([2]; DMF): 4 wt. % of the Solution | Solubility ([2]; DMSO): 4 wt. % of the Solution | Solubility ([2]; Dichloroacetic acid): 33 wt. % of the Solution | Solubility ([2]; Ethanol/water 4:1 (weight for weight)): 0.18 wt. % of the Solution | Solubility ([2]; Ethyl alcohol): 0.17 wt. % of the Solution | Solubility ([2]; Formic acid): 23 wt. % of the Solution | Solubility ([2]; Isopropyl alcohol): 0.09 wt. % of the Solution | Solubility ([2]; Methyl alcohol “MeOH”): 0.27 wt. % of the Solution | Solubility ([2]; Tetramethyl urea): 0.90 wt. % of the Solution | Solubility ([2]; Trifluoroaceticacetic acid): 30 wt. % of the Solution | amount solvated by formic acid ([2]; formic acid, room temperature): ~13 % by weight | Solubility ([3]; 25% water/ethanol mixture (1 part water, 3 parts ethanol by weight)): at least 4 percent by weight | Solubility ([3]; dimethyl sulfoxide, 90° C. water bath): > 10% | Solubility ([3]; formic acid, 90° C. water bath): > 10% | Solubility ([3]; pure ethanol): less than 4 percent by weight | Is KE soluble at 1%? [3, 5]: Yes | Is KE soluble at 4%? [3, 5]: No | Is KE soluble at 7%? [3, 5]: No | Is KE soluble at 10%? [3, 5]: No | Is KE soluble at 1%? [3, 6]: Yes | Is KE soluble at 4%? [3, 6]: No | Is KE soluble at 7%? [3, 6]: No | Is KE soluble at 10%? [3, 6]: No | Is KE soluble at 1%? [3, 7]: Yes | Is KE soluble at 4%? [3, 7]: Yes | Is KE soluble at 7%? [3, 7]: No | Is KE soluble at 10%? [3, 7]: No | Is KE soluble at 1%? [3, 8]: Yes | Is KE soluble at 4%? [3, 8]: Yes | Is KE soluble at 7%? [3, 8]: Yes | Is KE soluble at 10%? [3, 8]: No | Is KE soluble at 1%? [3, 9]: Yes | Is KE soluble at 4%? [3, 9]: Yes | Is KE soluble at 7%? [3, 9]: No | Is KE soluble at 10%? [3, 9]: No | Is KE soluble at 1%? [3, 10]: Yes | Is KE soluble at 4%? [3, 10]: Yes | Is KE soluble at 7%? [3, 10]: No | Is KE soluble at 10%? [3, 10]: No | Is KE soluble at 1%? [3, 11]: Yes | Is KE soluble at 4%? [3, 11]: No | Is KE soluble at 7%? [3, 11]: No | Is KE soluble at 10%? [3, 11]: No | Is KE soluble at 1%? [3, 12]: Yes | Is KE soluble at 4%? [3, 12]: Yes | Is KE soluble at 7%? [3, 12]: Yes | Is KE soluble at 10%? [3, 12]: No | Is KE soluble at 1%? [3, 13]: Yes | Is KE soluble at 4%? [3, 13]: Yes | Is KE soluble at 7%? [3, 13]: Yes | Is KE soluble at 10%? [3, 13]: No | Is KE soluble at 1%? [3, 14]: Yes | Is KE soluble at 4%? [3, 14]: Yes | Is KE soluble at 7%? [3, 14]: Yes | Is KE soluble at 10%? [3, 14]: Yes | Is KE soluble at 1%? [3, 15]: No | Is KE soluble at 4%? [3, 15]: No | Is KE soluble at 7%? [3, 15]: No | Is KE soluble at 10%? [3, 15]: No | Is KE soluble at 1%? ([3]; solvent DMF, 90° C. water bath): Yes | Is KE soluble at 4%? ([3]; solvent DMF, 90° C. water bath): Yes | Is KE soluble at 7%? ([3]; solvent DMF, 90° C. water bath): Yes | Is KE soluble at 10%? ([3]; solvent DMF, 90° C. water bath): Yes | Is KE soluble at 1%? [3, 16]: Yes | Is KE soluble at 4%? [3, 16]: Yes | Is KE soluble at 7%? [3, 16]: Yes | Is KE soluble at 10%? [3, 16]: Yes | Is KE soluble at 1%? [3, 17]: Yes | Is KE soluble at 4%? [3, 17]: No | Is KE soluble at 7%? [3, 17]: No | Is KE soluble at 10%? [3, 17]: No | Is KE soluble at 1%? [3, 18]: Yes | Is KE soluble at 4%? [3, 18]: No | Is KE soluble at 7%? [3, 18]: No | Is KE soluble at 10%? [3, 18]: No | Is KE soluble at 1%? [3, 19]: Yes | Is KE soluble at 4%? [3, 19]: Yes | Is KE soluble at 7%? [3, 19]: Yes | Is KE soluble at 10%? [3, 19]: Yes | Is KE soluble at 1%? [3, 20]: Yes | Is KE soluble at 4%? [3, 20]: Yes | Is KE soluble at 7%? [3, 20]: No | Is KE soluble at 10%? [3, 20]: No | Is KE soluble at 1%? [3, 21]: Yes | Is KE soluble at 4%? [3, 21]: No | Is KE soluble at 7%? [3, 21]: No | Is KE soluble at 10%? [3, 21]: No | Is KE soluble at 1%? [3, 22]: No | Is KE soluble at 4%? [3, 22]: No | Is KE soluble at 7%? [3, 22]: No | Is KE soluble at 10%? [3, 22]: No | solubility in water ([3]; water): insoluble | Solubility ([3]; water and acetone combined (25% Water/Acetone)): at least 4 percent by weight | amount dissolved ([4]; N,N-dimethyl formamide (DMF)): at least 1 percent by weight | amount dissolved ([4]; acetic acid): at least 1 percent by weight | amount dissolved ([4]; dimethyl sulfoxide (DMSO)): at least 1 percent by weight | amount dissolved ([4]; ethanol (EtOH)): at least 1 percent by weight | amount dissolved ([4]; ethylene glycol): at least 1 percent by weight | amount solvated by pyridine ([4]; pyridine): about 1 % by weight | KE soluble at 1% wt? ([4]; solvent Acrylonitrile, process T 75 °C): No | KE soluble at 1% wt? ([4]; solvent Benzene, process T 75 °C): No | KE soluble at 1% wt? ([4]; solvent Ethanol, process T 75 °C): Yes | KE soluble at 1% wt? ([4]; solvent Ethyl acetate, process T 75 °C): No | KE soluble at 1% wt? ([4]; solvent THF, process T 60 °C): No | KE soluble at 1% wt? ([4]; solvent n-Hexane, process T 75 °C): No | amount dissolved ([4]; the water/solvent mixtures (25 percent by weight water), all): at least 1 percent by weight

Source: patent US8642807B2, “Crystallized diacetylenic indicator compounds and methods of preparing the compounds” (Temptime Corporation, priority 2007, dated 2014)
